From PubChem BioAssay AID1259407 (Chemical Carcinogenesis Research Information System (CCRIS), 2018)
Active and inactive are the calls of the source. The rule behind the calls is not given here.

System: CCRIS mutagenicity, Ames/micronucleus/aberration tests
Assay: CCRIS mutagenicity studies
[1] = Test System: AMES SALMONELLA TYPHIMURIUM, Strain/Indicator: TA98, Metabolic Activation: NONE, Method: STANDARD PLATE
[2] = Test System: AMES SALMONELLA TYPHIMURIUM, Strain/Indicator: TA100, Metabolic Activation: NONE, Method: STANDARD PLATE

How did the mutagenic call (Test System: AMES SALMONELLA TYPHIMURIUM, Strain/Indicator: TA97, Metabolic Activation: NONE, Method: STANDARD PLATE) turn out when `Cn1c(CC(=O)OCCCl)c(C(=O)O)c2ccccc21` was run?
The mutagenic call was “inactive; negative”.

What about the mutagenic call (Test System: AMES SALMONELLA TYPHIMURIUM, Strain/Indicator: TA97, Metabolic Activation: RAT, LIVER, S-9, AROCLOR 1254 (4%, 10%), Method: STANDARD PLATE) of the same compound?
The mutagenic call was “inactive; negative”.

And the mutagenic call [1]?
The mutagenic call was “active; positive”.

And the mutagenic call (Test System: AMES SALMONELLA TYPHIMURIUM, Strain/Indicator: TA98, Metabolic Activation: RAT, LIVER, S-9, AROCLOR 1254 (4%, 10%), Method: STANDARD PLATE)?
Its mutagenic call is “inactive; negative”.

What about the mutagenic call [2] of the same compound?
Its mutagenic call is “inactive; negative”.

What about the mutagenic call (Test System: AMES SALMONELLA TYPHIMURIUM, Strain/Indicator: TA100, Metabolic Activation: RAT, LIVER, S-9, AROCLOR 1254 (4%, 10%), Method: STANDARD PLATE) of the same compound?
The mutagenic call was “inactive; negative”.

And the mutagenic call (Test System: AMES SALMONELLA TYPHIMURIUM, Strain/Indicator: TA102, Metabolic Activation: NONE, Method: STANDARD PLATE)?
The mutagenic call was “inactive; negative”.

And the mutagenic call (Test System: AMES SALMONELLA TYPHIMURIUM, Strain/Indicator: TA102, Metabolic Activation: RAT, LIVER, S-9, AROCLOR 1254 (4%, 10%), Method: STANDARD PLATE)?
The mutagenic call was “inactive; negative”.

`Fc1c(F)c(Cl)c(F)c(Cl)c1F` was tested. Which mutagenic call (Test System: AMES SALMONELLA TYPHIMURIUM, Strain/Indicator: TA98, Metabolic Activation: NONE, Method: PREINCUBATION) did it give?
The mutagenic call was “inactive; negative”.

What about the mutagenic call (Test System: AMES SALMONELLA TYPHIMURIUM, Strain/Indicator: TA98, Metabolic Activation: RAT, LIVER, S-9, AROCLOR 1254, Method: PREINCUBATION) of the same compound?
The mutagenic call was “inactive; negative”.

What about the mutagenic call (Test System: AMES SALMONELLA TYPHIMURIUM, Strain/Indicator: TA100, Metabolic Activation: NONE, Method: PREINCUBATION) of the same compound?
The mutagenic call was “inactive; negative”.

And the mutagenic call (Test System: AMES SALMONELLA TYPHIMURIUM, Strain/Indicator: TA100, Metabolic Activation: RAT, LIVER, S-9, AROCLOR 1254, Method: PREINCUBATION)?
Its mutagenic call is “inactive; negative”.

And the mutagenic call (Test System: AMES SALMONELLA TYPHIMURIUM, Strain/Indicator: TA1535, Metabolic Activation: NONE, Method: PREINCUBATION)?
Its mutagenic call is “inactive; negative”.

And the mutagenic call (Test System: AMES SALMONELLA TYPHIMURIUM, Strain/Indicator: TA1535, Metabolic Activation: RAT, LIVER, S-9, AROCLOR 1254, Method: PREINCUBATION)?
The mutagenic call was “inactive; negative”.

And the mutagenic call (Test System: AMES SALMONELLA TYPHIMURIUM, Strain/Indicator: TA1537, Metabolic Activation: NONE, Method: PREINCUBATION)?
Its mutagenic call is “inactive; negative”.

What about the mutagenic call (Test System: AMES SALMONELLA TYPHIMURIUM, Strain/Indicator: TA1537, Metabolic Activation: RAT, LIVER, S-9, AROCLOR 1254, Method: PREINCUBATION) of the same compound?
Its mutagenic call is “inactive; negative”.

And the mutagenic call (Test System: AMES SALMONELLA TYPHIMURIUM, Strain/Indicator: TA1538, Metabolic Activation: NONE, Method: PREINCUBATION)?
The mutagenic call was “inactive; negative”.

What about the mutagenic call (Test System: AMES SALMONELLA TYPHIMURIUM, Strain/Indicator: TA1538, Metabolic Activation: RAT, LIVER, S-9, AROCLOR 1254, Method: PREINCUBATION) of the same compound?
The mutagenic call was “inactive; negative”.

And the mutagenic call (Test System: CHINESE HAMSTER OVARY, Strain/Indicator: CHO-K1-BH4 (HGPRT)/6-THIOGUANINE, Metabolic Activation: NONE, Method: SUSPENSION/PLATE)?
Its mutagenic call is “inactive; negative”.

What about the mutagenic call (Test System: CHINESE HAMSTER OVARY, Strain/Indicator: CHO-K1-BH4 (HGPRT)/6-THIOGUANINE, Metabolic Activation: RAT, LIVER, S-9, AROCLOR 1254, Method: SUSPENSION/PLATE) of the same compound?
The mutagenic call was “inactive; negative”.

What does the source list for `CCCCCC[C@H](C/C=C\CCCCCCCC(=O)OC)OC(C)=O`?
mutagenic call (Test System: AMES SALMONELLA TYPHIMURIUM, Strain/Indicator: TA97, Metabolic Activation: NONE, Method: PREINCUBATION): inactive; negative; mutagenic call (Test System: AMES SALMONELLA TYPHIMURIUM, Strain/Indicator: TA97, Metabolic Activation: RAT, LIVER, S-9, AROCLOR 1254, Method: PREINCUBATION): inactive; negative; mutagenic call (Test System: AMES SALMONELLA TYPHIMURIUM, Strain/Indicator: TA102, Metabolic Activation: NONE, Method: PREINCUBATION): inactive; negative; mutagenic call (Test System: AMES SALMONELLA TYPHIMURIUM, Strain/Indicator: TA102, Metabolic Activation: RAT, LIVER, S-9, AROCLOR 1254, Method: PREINCUBATION): inactive; negative

`O=C1c2c(ccc3ccccc23)-c2cccc3cccc1c23` was tested. Which mutagenic call [1] did it give?
Its mutagenic call is “inactive; negative”.

What about the mutagenic call [2] of the same compound?
Its mutagenic call is “inactive; negative”.

For `CC(=O)[O-].CC(=O)[O-].[Cd+2]`, which mutagenic call (End Point: IN VITRO MICRONUCLEUS, Test System: CHL/IU CELLS, Metabolic Activation: NONE) is on record?
The mutagenic call was “active; positive”.

What about the mutagenic call (Test System: CHINESE HAMSTER OVARY, Strain/Indicator: CHO-K1 (HPRT)/6-THIOGUANINE, Metabolic Activation: NONE) of the same compound?
Its mutagenic call is “active; positive”.

What does the source list for `ClC(Cl)=Cc1c(Cl)c(Cl)c(Cl)c(Cl)c1Cl`?
mutagenic call [1]: inactive; negative; mutagenic call (Test System: AMES SALMONELLA TYPHIMURIUM, Strain/Indicator: TA98, Metabolic Activation: RAT, LIVER, S-9, AROCLOR 1254, Method: STANDARD PLATE): inactive; negative; mutagenic call [2]: inactive; negative; mutagenic call (Test System: AMES SALMONELLA TYPHIMURIUM, Strain/Indicator: TA100, Metabolic Activation: RAT, LIVER, S-9, AROCLOR 1254, Method: STANDARD PLATE): inactive; negative

How did the mutagenic call (End Point: IN VITRO CHROMOSOMAL ABERRATIONS, Test System: CHL CELLS, Metabolic Activation: RAT, LIVER, S-9, SODIUM PHENOBARBITAL AND 5,6-BENZOFLAVONE) turn out when `COc1cc(N=Nc2ncc([N+](=O)[O-])s2)c(NC(C)=O)cc1N(CCOC(=O)OCC(C)C)CCOC(=O)OCC(C)C` was run?
Its mutagenic call is “active; positive (ploidy changes)”.
